{
  "source": "patent US20170368082A1",
  "about": "“FORMULATIONS OF BRINCIDOFOVIR” (priority 2016, published 2017)",
  "key": {"[1]": {"assay": "Maximum tolerated dose study, single 2-hour IV infusion (Phase 1)", "format": "in vivo, Sprague-Dawley CD rats", "experimental": "For Phase 1, Sprague-Dawley CD® rats (2/sex/dosing interval) were dosed with brincidofovir via 2-hour IV infusion once at 2, 4, 10 or 15 mg/kg. The maximum feasible dose (MFD) was limited to 15 mg/kg because of increased hemolytic potential when the concentration of brincidofovir exceeds 1 mg/mL in the dosing solution. The dose volume was 10 mL/kg/hr for all dosing intervals. Each dose administration was followed by a 2-3 day observation period. At the end of the Phase 1 treatment period, all animals were euthanized and discarded without macroscopic examination.\nFor Phase 1 (MTD), up to four dose levels of brincidofovir were administered as escalating single doses in naïve male and female rats via intravenous infusion (2-hour). Each dose administration was followed by a 2-3 day observation period. Each subsequent dose level was increased and administered to naïve animals based on the response to the preceding doses until the maximum tolerated dose (MTD) was identified, or until the maximum feasible dose (MFD) based on prior evidence of hemolysis of 15 mg/kg was achieved.\nDuring Phase 1, each animal received a single dose administered via intravenous infusion (2-hours), followed by a 2-3 day observation period after each dose interval. Following the single intravenous (2-hour) infusion, the animals had their jackets and dosing sets removed and were not returned to saline maintenance.\nFor dose observations, Phase 1: Signs of poor health or toxic or pharmacologic effects (e.g., abnormalities in general condition, appearance, activity, behavior, respiration, etc.) observed during infusion period were recorded."}, "[2]": {"assay": "Clinical infusion system compatibility", "format": "physicochemical", "experimental": "The testing procedure can be summarized as follows: • 1. […] The tested infusion system was attached to the infusion bag and manually filled with solution from the infusion bag. Approximately 1 mL (triplicates) of the testing solution was collected as an end-of-line sample for analysis (t0, eol). • 4. The testing infusion system was shut off, and stored at ambient conditions until the next time point. […] B Braun, Rate Flow® regulator IV set). […] The infusion systems were then attached to the infusion bag and manually filled with solution from the infusion bag. Aliquots were collected as an end-of-line sample for analysis (t0, eol). The IV lines were closed between time points with the infusate resting within the infusion system and stored at ambient temperature. At testing time points, approximately 17 mL (approx. volume of the IV system) of infusate solution were drained, which led to a replacement of the solution in the IV system from the bag reservoir. Following this replacement, another end-of-line sample was collected for the assessments (t10 min, eol, t3 h, eol, and t6 h, eol). The samples were evaluated for appearance, pH, and brincidofovir recovery."}, "[3]": {"conditions": "B. Braun, 0.1 mg/mL, t10 min, eol"}, "[4]": {"conditions": "B. Braun, 1.0 mg/mL, t10 min, eol"}, "[5]": {"conditions": "Baxter, 0.1 mg/mL, t10 min, eol"}, "[6]": {"conditions": "Baxter, 1.0 mg/mL, t10 min, eol"}},
  "data": [
    {"smiles": "CCCCCCCCCCCCCCCCOCCCOP(=O)(O)CO[C@H](CO)Cn1ccc(N)nc1=O", "note": "[Brincidofovir]", "values": [
      {"measurement": "Survival", "setting": "[1]; 2, 4, 10 or 15 mg/kg", "result": "survived until their scheduled euthanasia"},
      {"measurement": "Tolerability", "setting": "[1]; 2, 4, 10 or 15 mg/kg single 2-hour IV infusion", "result": "all doses were well tolerated"},
      {"measurement": "Clinical signs", "setting": "[1]; Dose 1 (2 mg/kg), both males", "result": "rapid breath and hunched posture, with and without piloerection, partially closed eyes, and decreased activity"},
      {"measurement": "Clinical signs", "setting": "[1]; Dose 2 (4 mg/kg), both males and one female", "result": "irregular breathing"},
      {"measurement": "Clinical signs", "setting": "[1]; Dose 3 (10 mg/kg)", "result": "No clinical signs were observed"},
      {"measurement": "Clinical signs", "setting": "[1]; Dose 4 (15 mg/kg), both males and one female", "result": "decreased activity with or without irregular breathing, piloerection, and bilateral partially closed eyes"},
      {"measurement": "Maximum feasible dose (MFD)", "setting": "[1]; single 2-hour IV infusion", "result": 15, "unit": "mg/kg"},
      {"measurement": "Appearance", "setting": "[2]; B. Braun, 0.1 mg/mL, t0, bag", "result": "Clear, colorless"},
      {"measurement": "Measured pH", "setting": "[2]; B. Braun, 0.1 mg/mL, t0, bag", "result": 7.8},
      {"measurement": "Observed c(BCV)", "setting": "[2]; B. Braun, 0.1 mg/mL, t0, bag", "result": 0.091, "unit": "mg/mL"},
      {"measurement": "Appearance", "setting": "[2]; B. Braun, 0.1 mg/mL, t0, eol", "result": "Clear, colorless"},
      {"measurement": "Measured pH", "setting": "[2]; B. Braun, 0.1 mg/mL, t0, eol", "result": 7.7},
      {"measurement": "Observed c(BCV)", "setting": "[2]; B. Braun, 0.1 mg/mL, t0, eol", "result": 0.086, "unit": "mg/mL"},
      {"measurement": "Appearance", "setting": "[2]; [3]", "result": "Clear, colorless"},
      {"measurement": "Measured pH", "setting": "[2]; [3]", "result": 7.7},
      {"measurement": "Observed c(BCV)", "setting": "[2]; [3]", "result": 0.091, "unit": "mg/mL"},
      {"measurement": "Appearance", "setting": "[2]; B. Braun, 0.1 mg/mL, t3 h, eol", "result": "Clear, colorless"},
      {"measurement": "Measured pH", "setting": "[2]; B. Braun, 0.1 mg/mL, t3 h, eol", "result": 7.7},
      {"measurement": "Observed c(BCV)", "setting": "[2]; B. Braun, 0.1 mg/mL, t3 h, eol", "result": 0.090, "unit": "mg/mL"},
      {"measurement": "Appearance", "setting": "[2]; B. Braun, 0.1 mg/mL, t6 h, eol", "result": "Clear, colorless"},
      {"measurement": "Measured pH", "setting": "[2]; B. Braun, 0.1 mg/mL, t6 h, eol", "result": 7.7},
      {"measurement": "Observed c(BCV)", "setting": "[2]; B. Braun, 0.1 mg/mL, t6 h, eol", "result": 0.091, "unit": "mg/mL"},
      {"measurement": "Observed c(BCV)", "setting": "[2]; B. Braun, 0.1 mg/mL, t−24 h, bag", "result": 0.090, "unit": "mg/mL"},
      {"measurement": "Appearance", "setting": "[2]; B. Braun, 1.0 mg/mL, t0, bag", "result": "Clear, colorless"},
      {"measurement": "Measured pH", "setting": "[2]; B. Braun, 1.0 mg/mL, t0, bag", "result": 8.1},
      {"measurement": "Observed c(BCV)", "setting": "[2]; B. Braun, 1.0 mg/mL, t0, bag", "result": 0.86, "unit": "mg/mL"},
      {"measurement": "Appearance", "setting": "[2]; B. Braun, 1.0 mg/mL, t0, eol", "result": "Clear, colorless"},
      {"measurement": "Measured pH", "setting": "[2]; B. Braun, 1.0 mg/mL, t0, eol", "result": 8.1},
      {"measurement": "Observed c(BCV)", "setting": "[2]; B. Braun, 1.0 mg/mL, t0, eol", "result": 0.86, "unit": "mg/mL"},
      {"measurement": "Appearance", "setting": "[2]; [4]", "result": "Clear, colorless"},
      {"measurement": "Measured pH", "setting": "[2]; [4]", "result": 8.1},
      {"measurement": "Observed c(BCV)", "setting": "[2]; [4]", "result": 0.86, "unit": "mg/mL"},
      {"measurement": "Appearance", "setting": "[2]; B. Braun, 1.0 mg/mL, t3 h, eol", "result": "Clear, colorless"},
      {"measurement": "Measured pH", "setting": "[2]; B. Braun, 1.0 mg/mL, t3 h, eol", "result": 8.1},
      {"measurement": "Observed c(BCV)", "setting": "[2]; B. Braun, 1.0 mg/mL, t3 h, eol", "result": 0.86, "unit": "mg/mL"},
      {"measurement": "Appearance", "setting": "[2]; B. Braun, 1.0 mg/mL, t6 h, eol", "result": "Clear, colorless"},
      {"measurement": "Measured pH", "setting": "[2]; B. Braun, 1.0 mg/mL, t6 h, eol", "result": 8.1},
      {"measurement": "Observed c(BCV)", "setting": "[2]; B. Braun, 1.0 mg/mL, t6 h, eol", "result": 0.86, "unit": "mg/mL"},
      {"measurement": "Observed c(BCV)", "setting": "[2]; B. Braun, 1.0 mg/mL, t−24 h, bag", "result": 0.86, "unit": "mg/mL"},
      {"measurement": "Appearance", "setting": "[2]; Baxter, 0.1 mg/mL, t0, bag", "result": "Clear, colorless"},
      {"measurement": "Measured pH", "setting": "[2]; Baxter, 0.1 mg/mL, t0, bag", "result": 7.7},
      {"measurement": "Observed c(BCV)", "setting": "[2]; Baxter, 0.1 mg/mL, t0, bag", "result": 0.091, "unit": "mg/mL"},
      {"measurement": "Appearance", "setting": "[2]; Baxter, 0.1 mg/mL, t0, eol", "result": "Clear, colorless"},
      {"measurement": "Measured pH", "setting": "[2]; Baxter, 0.1 mg/mL, t0, eol", "result": 7.7},
      {"measurement": "Observed c(BCV)", "setting": "[2]; Baxter, 0.1 mg/mL, t0, eol", "result": 0.088, "unit": "mg/mL"},
      {"measurement": "Appearance", "setting": "[2]; [5]", "result": "Clear, colorless"},
      {"measurement": "Measured pH", "setting": "[2]; [5]", "result": 7.7},
      {"measurement": "Observed c(BCV)", "setting": "[2]; [5]", "result": 0.092, "unit": "mg/mL"},
      {"measurement": "Appearance", "setting": "[2]; Baxter, 0.1 mg/mL, t3 h, eol", "result": "Clear, colorless"},
      {"measurement": "Measured pH", "setting": "[2]; Baxter, 0.1 mg/mL, t3 h, eol", "result": 7.7},
      {"measurement": "Observed c(BCV)", "setting": "[2]; Baxter, 0.1 mg/mL, t3 h, eol", "result": 0.091, "unit": "mg/mL"},
      {"measurement": "Appearance", "setting": "[2]; Baxter, 0.1 mg/mL, t6 h, eol", "result": "Clear, colorless"},
      {"measurement": "Measured pH", "setting": "[2]; Baxter, 0.1 mg/mL, t6 h, eol", "result": 7.7},
      {"measurement": "Observed c(BCV)", "setting": "[2]; Baxter, 0.1 mg/mL, t6 h, eol", "result": 0.092, "unit": "mg/mL"},
      {"measurement": "Observed c(BCV)", "setting": "[2]; Baxter, 0.1 mg/mL, t−24 h, bag", "result": 0.090, "unit": "mg/mL"},
      {"measurement": "Appearance", "setting": "[2]; Baxter, 1.0 mg/mL, t0, bag", "result": "Clear, colorless"},
      {"measurement": "Measured pH", "setting": "[2]; Baxter, 1.0 mg/mL, t0, bag", "result": 8.1},
      {"measurement": "Observed c(BCV)", "setting": "[2]; Baxter, 1.0 mg/mL, t0, bag", "result": 0.86, "unit": "mg/mL"},
      {"measurement": "Appearance", "setting": "[2]; Baxter, 1.0 mg/mL, t0, eol", "result": "Clear, colorless"},
      {"measurement": "Measured pH", "setting": "[2]; Baxter, 1.0 mg/mL, t0, eol", "result": 8.1},
      {"measurement": "Observed c(BCV)", "setting": "[2]; Baxter, 1.0 mg/mL, t0, eol", "result": 0.85, "unit": "mg/mL"},
      {"measurement": "Appearance", "setting": "[2]; [6]", "result": "Clear, colorless"},
      {"measurement": "Measured pH", "setting": "[2]; [6]", "result": 8.1},
      {"measurement": "Observed c(BCV)", "setting": "[2]; [6]", "result": 0.86, "unit": "mg/mL"},
      {"measurement": "Appearance", "setting": "[2]; Baxter, 1.0 mg/mL, t3 h, eol", "result": "Clear, colorless"},
      {"measurement": "Measured pH", "setting": "[2]; Baxter, 1.0 mg/mL, t3 h, eol", "result": 8.1},
      {"measurement": "Observed c(BCV)", "setting": "[2]; Baxter, 1.0 mg/mL, t3 h, eol", "result": 0.86, "unit": "mg/mL"},
      {"measurement": "Appearance", "setting": "[2]; Baxter, 1.0 mg/mL, t6 h, eol", "result": "Clear, colorless"},
      {"measurement": "Measured pH", "setting": "[2]; Baxter, 1.0 mg/mL, t6 h, eol", "result": 8.1},
      {"measurement": "Observed c(BCV)", "setting": "[2]; Baxter, 1.0 mg/mL, t6 h, eol", "result": 0.86, "unit": "mg/mL"},
      {"measurement": "Observed c(BCV)", "setting": "[2]; Baxter, 1.0 mg/mL, t−24 h, bag", "result": 0.85, "unit": "mg/mL"}
    ]}
  ]
}
